Measurements: patent US20170319562A1, “Compositions and Methods for Extended Therapy with Aminopyridines” (Acorda Therapeutics, Inc., priority 2009, published 2017)

What was measured:
[1] = test system: normal adult myelinated axons; conditions: cited from earlier work
[2] = two formulations of IR tablets; cited from earlier work
[3] = oral, non-sustained release; cited from earlier work
[4] = human, in vivo, po, 10 mg
[5] = Single 20 mg intravenous dose, volume of distribution; type: in vivo; conditions: plasma
Description: Measurable levels are present in the saliva.

[6] = test system: patients with multiple sclerosis; assay: MS-F203EXT open-label extension study; type: in vivo, human; conditions: for patients classified as Extension Timed Walk Responders: cut-off Jul. 31, 2008
Protocol: Data were presented by study pair (parent and extension).
In the MS-F203EXT study, which allowed patients to enroll directly from the parent study MS-F203, open-label 4-aminopyridine-SR 10 mg b.i.d. was dispensed at visit 0 (a separate screening visit was only required if the screening visit could not be combined with the Final visit for MS-F203); visit 1 was scheduled to occur two weeks after visit 0, visit 2 at 12 weeks after visit 1, visit 3 at 12 weeks after visit 2. The planned interval between subsequent visits was 26 weeks. Therefore, at visit 4, a patient should have been on 4-aminopyridine-SR treatment for approximately one year.
This Example considers efficacy data collected from the three ongoing, open label extension studies (MS-F202EXT, MS-F203EXT, MS-F204EXT). The primary focus was the Timed 25-Foot Walk, assessed in a manner consistent with its evaluation in the parent double-blind studies. This included the determination of response to treatment using a criterion equivalent to the Timed Walk Response criterion used in the parent studies. […] The clinical meaningfulness of this criterion was evaluated in terms of the Subject and Clinician Global Impression scores recorded during the extension studies.
In the extension studies, a “Timed Walk Extension Responder” was defined as a patient who achieved a faster walking speed on the T25FW for the majority of on-drug treatment visits during the first year of the study (Visits 1-4 for MS-F203EXT and MS-F204EXT) than the maximum walking speed previously measured for the patient during any off-drug visits in either the parent study or in the extension study.

[7] = test system: patients with multiple sclerosis; assay: MS-F203 Phase 3 double-blind placebo-controlled study; type: in vivo, human; conditions: 10 mg b.i.d.
Description: A three stage, stepwise analysis based on this variable was used to establish a positive outcome on the primary endpoint and to establish its clinical meaningfulness with respect to overall walking ability. […] The second step was to register a significant improvement in MSWS-12 score for the Timed-Walk Responders when compared to Timed-Walk Non-Responders. The third step was to confirm maintenance of effect by testing whether those patients who responded to 4-aminopyridine-SR on the T25FW would still register a significant improvement in walking speed relative to placebo-treated patients at the last observed double-blind visit (i.e., the change from baseline in walking speed at the double-blind endpoint). FIG. 47 depicts walking speed improvements found in the MS-F203 study: In FIG. 47, the two graphs show the average change in walking speed from baseline at each of the four visits over the 3 months of double blind treatment. […] There was no indication of a loss of efficacy over, e.g., 12 weeks, 13 weeks, 14 weeks, 3 months of treatment in this study. The MS-F203 study established that the improvement in walking speed seen in treated Timed Walk Responders was maintained over, e.g., 12 weeks, 13 weeks, 14 weeks, 3 months of treatment. The enxtention data herein established that periods greater than those of this study were able to be effeicaious, thus as a durable and chronic therapy. […]

Nc1ccncc1 [4-aminopyridine]
concentrations causing gradual depolarization of the axon resting potential [1]: above 1 mM
concentrations at which the action potential shows little or no sensitivity ([1]; normal adult myelinated axons): below 100 μM
absolute bioavailability [2]: 95%
time of peak plasma concentrations after dosing [3]: ≤ 1 h
time of Cmax after dose administration [4]: approximately 1.1 hours
Vd [5]: 2.6 L/kg
decline in walking speed from the original double-blind baseline ([6]; Extension Timed Walk Non-Responders, end of the second year): approximately 8%
improvement in walking speed over the original baseline ([6]; Extension Timed Walk Responders, Visit 6): more than 20%
mean walking speed faster than double-blind baseline at each extension visit ([6]; Extension Timed Walk Responders, first year): more than 30%
patients classified as Extension Timed Walk Responders ([6]; all patients): 24.9%
Extension Timed Walk Response rate within year ([6]; double-blind Non-Responders, year 1): 19.7%
Extension Timed Walk Response rate within year ([6]; double-blind Non-Responders, year 2): 17.5%
Extension Timed Walk Response rate within year ([6]; double-blind Responders, year 1): 42.9%
Extension Timed Walk Response rate within year ([6]; double-blind Responders, year 2): 36.1%
patients classified as Extension Timed Walk Responders ([6]; parent-study treated Timed Walk Non-Responders): 19.7%
patients classified as Extension Timed Walk Responders ([6]; parent-study treated Timed Walk Responders): 41.4%
Extension Timed Walk Response rate within year ([6]; placebo treated in parent study, year 1): 16.2%
Extension Timed Walk Response rate within year ([6]; placebo treated in parent study, year 2): 20.8%
patients classified as Extension Timed Walk Responders ([6]; placebo-treated in parent study): 17.7%
improvement in walking speed across the treatment period ([7]; Timed Walk Non-responders): approximately 7%
average increase in walking speed over the treatment period compared to baseline ([7]; Timed Walk Responders): approximately 25%
